In US10519152B2, “Compounds and their use in treating cancer” (AstraZeneca AB, priority 2017, dated 2019):

Target: T1, Estrogen Receptor (ERα) in MCF-7 human ductal carcinoma breast cell line (Homo sapiens, UniProt P03372)
T1 construct: endogenous in cells; host or cells: MCF-7
T1 sequence (P03372 1-595): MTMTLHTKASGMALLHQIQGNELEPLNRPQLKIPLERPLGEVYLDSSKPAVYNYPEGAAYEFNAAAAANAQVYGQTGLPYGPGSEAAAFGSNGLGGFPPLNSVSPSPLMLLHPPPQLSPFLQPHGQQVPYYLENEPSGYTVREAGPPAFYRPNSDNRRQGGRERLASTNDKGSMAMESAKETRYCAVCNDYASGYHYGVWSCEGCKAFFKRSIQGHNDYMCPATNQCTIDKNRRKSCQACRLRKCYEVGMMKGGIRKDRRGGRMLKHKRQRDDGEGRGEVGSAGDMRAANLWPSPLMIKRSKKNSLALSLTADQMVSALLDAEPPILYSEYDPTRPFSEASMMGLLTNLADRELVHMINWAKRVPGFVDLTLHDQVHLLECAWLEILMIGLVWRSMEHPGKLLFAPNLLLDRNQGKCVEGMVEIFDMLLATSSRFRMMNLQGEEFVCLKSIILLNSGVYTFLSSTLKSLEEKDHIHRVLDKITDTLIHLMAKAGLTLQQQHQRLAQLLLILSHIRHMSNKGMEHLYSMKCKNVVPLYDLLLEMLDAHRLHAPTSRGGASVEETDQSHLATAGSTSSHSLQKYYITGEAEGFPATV
Assay: MCF-7 ER degradation assay (cell based immuno-fluorescence)
Conditions: MCF-7 cells; for ER degradation ≥ 90% at 0.3 μM: ER degradation by fulvestrant at 0.3 μM is defined as 100%; for DC50: 18-22 hours incubation, 50% reduction of ERα expression, single experiment or average of two or more, read-out: MCF-7 ER degradation IC50
Procedure, shortened: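 MCF-7 human ductal carcinoma breast cells were seeded at 3.75×10^4 cells per mL (40 μL per well) in 384 well plates with phenol red free DMEM containing 2 mM L-Glutamine and 5% (v/v) Charcoal/Dextran treated foetal calf serum. After overnight culture, compounds were acoustically dispensed, incubated 18-22 hours, then cells were formaldehyde-fixed and immunostained for ERα.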

In the case of `Cc1ncsc1-c1ccc(CNC(=O)[C@@H]2C[C@@H](O)CN2C(=O)[C@@H](NC(=O)C(F)(F)OCCOCCCCOc2cc(F)c([C@@H]3c4[nH]c5ccccc5c4C[C@@H](C)N3CC(C)(C)F)c(F)c2)C(C)(C)C)cc1` [Example 121, (2S,4R)-1-((S)-2-(2-(2-(4-(3,5-Difluoro-4-((1R,3R)-2-(2-fluoro-2-methylpropyl)-3-methyl-2,3,4,9-tetrahydro-1H-pyrido[3,4-b]indol-1-yl)phenoxy)butoxy)ethoxy)-2,2-difluoroacetamido)-3,3-dimethylbutanoyl)-4-hydroxy-N-(4-(4-methylthiazol-5-yl)benzyl)pyrrolidine-2-carboxamide], the “ER degradation ≥ 90% at 0.3 μM” value is reported as “•” and the DC50 is reported as 2.6 nM.

In the case of `Cc1ncsc1-c1ccc([C@H](C)NC(=O)[C@@H]2C[C@@H](O)CN2C(=O)[C@@H](NC(=O)C(F)(F)OCCOCCCCOc2cc(F)c([C@@H]3c4[nH]c5ccccc5c4C[C@@H](C)N3CC(C)(C)F)c(F)c2)C(C)(C)C)cc1` [Example 122, (2S,4R)-1-((S)-2-(2-(2-(4-(3,5-Difluoro-4-((1R,3R)-2-(2-fluoro-2-methylpropyl)-3-methyl-2,3,4,9-tetrahydro-1H-pyrido[3,4-b]indol-1-yl)phenoxy)butoxy)ethoxy)-2,2-difluoroacetamido)-3,3-dimethylbutanoyl)-4-hydroxy-N—((S)-1-(4-(4-methylthiazol-5-yl)phenyl)ethyl)pyrrolidine-2-carboxamide], the “ER degradation ≥ 90% at 0.3 μM” value is reported as “•” and the DC50 is reported as 2 nM.

With `Cc1ncsc1-c1ccc(CNC(=O)[C@@H]2C[C@@H](O)CN2C(=O)[C@@H](NC(=O)COCC(F)(F)COCCCOc2cc(F)c([C@@H]3c4[nH]c5ccccc5c4C[C@@H](C)N3CC(C)(C)F)c(F)c2)C(C)(C)C)cc1` [Example 125, (2S,4R)-1-((S)-2-(2-(3-(3-(3,5-Difluoro-4-((1R,3R)-2-(2-fluoro-2-methylpropyl)-3-methyl-2,3,4,9-tetrahydro-1H-pyrido[3,4-b]indol-1-yl)phenoxy)propoxy)-2,2-difluoropropoxy)acetamido)-3,3-dimethylbutanoyl)-4-hydroxy-N-(4-(4-methylthiazol-5-yl)benzyl)pyrrolidine-2-carboxamide] the “ER degradation ≥ 90% at 0.3 μM” value was “••” and the DC50 was 0.7 nM.

For `Cc1ncsc1-c1ccc(CNC(=O)[C@@H]2C[C@@H](O)CN2C(=O)[C@@H](NC(=O)COCCOCCC(F)(F)CCOc2cc(F)c([C@@H]3c4[nH]c5ccccc5c4C[C@@H](C)N3CC(C)(C)F)c(F)c2)C(C)(C)C)cc1` [Example 127, (2S,4R)-1-((S)-2-(2-(2-((5-(3,5-Difluoro-4-((R,3R)-2-(2-fluoro-2-methylpropyl)-3-methyl-2,3,4,9-tetrahydro-1H-pyrido[3,4-b]indol-1-yl)phenoxy)-3,3-difluoropentyl)oxy)ethoxy)acetamido)-3,3-dimethylbutanoyl)-4-hydroxy-N-(4-(4-methylthiazol-5-yl)benzyl)pyrrolidine-2-carboxamide], the “ER degradation ≥ 90% at 0.3 μM” value was “••” and the DC50 was 0.8 nM.

`Cc1ncsc1-c1ccc(CNC(=O)[C@@H]2C[C@@H](O)CN2C(=O)[C@@H](NC(=O)COCCOCCCCOc2cc(F)c([C@@H]3c4[nH]c5ccccc5c4C[C@@H](C)N3CC(C)(C)F)c(F)c2)C(C)(C)C)cc1` [Example 128, (2S,4R)-1-((S)-2-(2-(2-(4-(3,5-Difluoro-4-((1R,3R)-2-(2-fluoro-2-methylpropyl)-3-methyl-2,3,4,9-tetrahydro-1H-pyrido[3,4-b]indol-1-yl)phenoxy)butoxy)ethoxy)acetamido)-3,3-dimethylbutanoyl)-4-hydroxy-N-(4-(4-methylthiazol-5-yl)benzyl)pyrrolidine-2-carboxamide] was tested, and the “ER degradation ≥ 90% at 0.3 μM” value was “••” and the DC50 was 0.6 nM.

`Cc1ncsc1-c1ccc(CNC(=O)[C@@H]2C[C@@H](O)CN2C(=O)[C@@H](NC(=O)COCCCOCCCCOc2cc(F)c([C@@H]3c4[nH]c5ccccc5c4C[C@@H](C)N3CC(C)(C)F)c(F)c2)C(C)(C)C)cc1` [Example 129, (2S,4R)-1-((S)-2-(2-(3-(4-(3,5-Difluoro-4-((1R,3R)-2-(2-fluoro-2-methylpropyl)-3-methyl-2,3,4,9-tetrahydro-1H-pyrido[3,4-b]indol-1-yl)phenoxy)butoxy)propoxy)acetamido)-3,3-dimethylbutanoyl)-4-hydroxy-N-(4-(4-methylthiazol-5-yl)benzyl)pyrrolidine-2-carboxamide] was tested, and the “ER degradation ≥ 90% at 0.3 μM” value was “••” and the DC50 was 0.8 nM.

With `Cc1ncsc1-c1ccc(CNC(=O)[C@@H]2C[C@@H](O)CN2C(=O)[C@@H](NC(=O)COCCC(F)(F)CCOc2cc(F)c([C@@H]3c4[nH]c5ccccc5c4C[C@@H](C)N3CC(C)(C)F)c(F)c2)C(C)(C)C)cc1` [Example 130, (2S,4R)-1-((S)-2-(2-((5-(3,5-Difluoro-4-((1R,3R)-2-(2-fluoro-2-methylpropyl)-3-methyl-2,3,4,9-tetrahydro-1H-pyrido[3,4-b]indol-1-yl)phenoxy)-3,3-difluoropentyl)oxy)acetamido)-3,3-dimethylbutanoyl)-4-hydroxy-N-(4-(4-methylthiazol-5-yl)benzyl)pyrrolidine-2-carboxamide] the “ER degradation ≥ 90% at 0.3 μM” value was “•” and the DC50 was 0.5 nM.

`Cc1ncsc1-c1ccc(CNC(=O)[C@@H]2C[C@@H](O)CN2C(=O)[C@@H](NC(=O)CNCCC(F)(F)CCOc2cc(F)c([C@@H]3c4[nH]c5ccccc5c4C[C@@H](C)N3CC(C)(C)F)c(F)c2)C(C)(C)C)cc1` [Example 131, (2S,4R)-1-((S)-2-(2-((5-(3,5-Difluoro-4-((1R,3R)-2-(2-fluoro-2-methylpropyl)-3-methyl-2,3,4,9-tetrahydro-1H-pyrido[3,4-b]indol-1-yl)phenoxy)-3,3-difluoropentyl)amino)acetamido)-3,3-dimethylbutanoyl)-4-hydroxy-N-(4-(4-methylthiazol-5-yl)benzyl)pyrrolidine-2-carboxamide] was tested, and the “ER degradation ≥ 90% at 0.3 μM” value was “•” and the DC50 was 0.8 nM.

With `Cc1ncsc1-c1ccc(CNC(=O)[C@@H]2C[C@@H](O)CN2C(=O)[C@@H](NC(=O)COCc2cccc(COc3cc(F)c([C@@H]4c5[nH]c6ccccc6c5C[C@@H](C)N4CC(C)(C)F)c(F)c3)n2)C(C)(C)C)cc1` [Example 132, (2S,4R)-1-((S)-2-(2-((6-((3,5-Difluoro-4-((1R,3R)-2-(2-fluoro-2-methylpropyl)-3-methyl-2,3,4,9-tetrahydro-1H-pyrido[3,4-b]indol-1-yl)phenoxy)methyl)pyridin-2-yl)methoxy)acetamido)-3,3-dimethylbutanoyl)-4-hydroxy-N-(4-(4-methylthiazol-5-yl)benzyl)pyrrolidine-2-carboxamide] the “ER degradation ≥ 90% at 0.3 μM” value was “•” and the DC50 was 0.6 nM.

With `Cc1ncsc1-c1ccc(CNC(=O)[C@@H]2C[C@@H](O)CN2C(=O)[C@@H](NC(=O)COCc2ccnc(COc3cc(F)c([C@@H]4c5[nH]c6ccccc6c5C[C@@H](C)N4CC(C)(C)F)c(F)c3)c2)C(C)(C)C)cc1` [Example 134, (2S,4R)-1-((S)-2-(2-((2-((3,5-Difluoro-4-((1R,3R)-2-(2-fluoro-2-methylpropyl)-3-methyl-2,3,4,9-tetrahydro-1H-pyrido[3,4-b]indol-1-yl)phenoxy)methyl)pyridin-4-yl)methoxy)acetamido)-3,3-dimethylbutanoyl)-4-hydroxy-N-(4-(4-methylthiazol-5-yl)benzyl)pyrrolidine-2-carboxamide] the “ER degradation ≥ 90% at 0.3 μM” value was “•” and the DC50 was 0.5 nM.

`Cc1ncsc1-c1ccc(CNC(=O)[C@@H]2C[C@@H](O)CN2C(=O)[C@@H](NC(=O)COCCCCCOCCCOc2cc(F)c([C@@H]3c4[nH]c5ccccc5c4C[C@@H](C)N3CC(C)(C)F)c(F)c2)C(C)(C)C)cc1` [Example 136, (2S,4R)-1-((S)-2-(2-((5-(3-(3,5-Difluoro-4-((1R,3R)-2-(2-fluoro-2-methylpropyl)-3-methyl-2,3,4,9-tetrahydro-1H-pyrido[3,4-b]indol-1-yl)phenoxy)propoxy)pentyl)oxy)acetamido)-3,3-dimethylbutanoyl)-4-hydroxy-N-(4-(4-methylthiazol-5-yl)benzyl)pyrrolidine-2-carboxamide] was tested, and the “ER degradation ≥ 90% at 0.3 μM” value was “••” and the DC50 was 1.1 nM.

In the case of `Cc1ncsc1-c1ccc([C@H](C)NC(=O)[C@@H]2C[C@@H](O)CN2C(=O)[C@@H](NC(=O)COCCCOCCCCCOc2cc(F)c([C@@H]3c4[nH]c5ccccc5c4C[C@@H](C)N3CC(C)(C)F)c(F)c2)C(C)(C)C)cc1` [Example 137, (2S,4R)-1-((S)-2-(2-(3-((5-(3,5-Difluoro-4-((R,3R)-2-(2-fluoro-2-methylpropyl)-3-methyl-2,3,4,9-tetrahydro-1H-pyrido[3,4-b]indol-1-yl)phenoxy)pentyl)oxy)propoxy)acetamido)-3,3-dimethylbutanoyl)-4-hydroxy-N—((S)-1-(4-(4-methylthiazol-5-yl)phenyl)ethyl)pyrrolidine-2-carboxamide], the “ER degradation ≥ 90% at 0.3 μM” value is reported as “••” and the DC50 is reported as 0.8 nM.
